The results in this text go back to patent US9676786B2, “Pharmacologically active compounds” (The University of Liverpool, priority 2013, dated 2017).

The test system of data set [1] is neuropathic rats. The experiment in a line: Mechanical hyperalgesia, paw withdrawal thresholds in neuropathic rats (partial sciatic nerve ligation). The format is in vivo, rat. Conditions: neuropathic Wistar rats; positive control. The text has this: (§1) The wound was closed with skin clips.
(§2) Control animals received vehicle alone.

Data set [2] deals with neuropathic rats. As to the kind of experiment: Cold sensitivity (10° C. cold plate), paw withdrawal latencies in neuropathic rats. It is filed as in vivo, rat. Particulars: neuropathic Wistar rats; positive control.
Description: as §1, §2

Another data set addresses α1 glycine receptor (Homo sapiens (Human), UniProt P23415). As to the kind of experiment: Expression and electrophysiological characterization of glycine receptor activity (patch/voltage clamp). It is filed as cell-based. Conditions: modulation of agonist induced currents at glycine EC20; means ± s.d. As to the method: Human embryonic kidney (HEK) 293 cells (ATCC CRL 1573) and/or Xenopus laevis oocytes were used for expressing the human a1-3 glycine receptor subunit as well as human a1, b3, g2 GABA receptor subunit cDNAs inserted into mammalian expression vectors. Patch- and voltage-clamp recording from receptor expressing cells was performed at a holding potential of −70 mV in normal Ringer solution and digitized for analyses. Dose-response curves of agonist induced peak currents (I) were normalized to the maximal current value obtained and fitted with the sigmoidal Hill equation using a Gauss Marquardt iteration, where EC50 represents the glycine/GABA concentration resulting in a half maximal response. Effects of the compounds tested on agonist induced currents were analysed after superfusing the cells with the respective compound for 5 seconds prior to and during agonist application and dose-response curves of modulated currents were determined in the presence of agonist concentrations eliciting a response corresponding to 20% of the maximal inducible current (EC20 value). Results represent means±s.d. and the significance of the data was evaluated using Student's paired t test and considered to be statistically significant at P<0.05.

A short description of data set [3]: Pharmacokinetic evaluation, oral dosing in rats. Particulars: 10 mg/kg oral, SSV, non-fasted rats. It is filed as in vivo, rat. As to the method: • Dose—10 mg/kg (5 mL/kg) • Route—ORAL • Vehicles—10% DMSO/10% Solutol and SSV • Time—24 h • Procedure Number—6 Vehicles • 10% DMSO/10% Solutol/80% Saline • 1) Compound was weighed out into a clean vial. • 2) DMSO was added into the vial; the vial was vortexed and sonicated it for 15 min. • 3) Solutol HS 15 was heated at 50° C. until a liquid formed, and then was added into the vial. The vial was vortexed for 1-2 min. • 4) 0.9% Saline solution was added to the vial. The vial was vortexed and then sonicated for 10 min. Standard Suspension Vehicle (SSV) • 1) A solution of SSV was made using 0.5% Sodium carboxymethylcellulose, 0.5% Benzyl alcohol, 0.4% Tween80 and 98.6% saline (0.9%) • 2) Compound was weighed out into a clean vial • 3) SSV solution was added into the vial; the vial was vortexed and sonicated it for 15 min. Fasted Rats
Fasted rats were fasted overnight and given access to food immediately after dosing.
• 1) Rats were manually restrained and given a 10 mg/kg oral dose of compound at 5 mL/kg. • 2) At designated time points (0.25, 0.5, 1, 3, 5, 7 and 24 hours) the rats were anaesthetised using isoflurane. • 3) Approximately 300 μL of blood was taken from the tail vein using a 1.5 inch needle treated with heparin and collected into 1.5 mL eppendorf tubes. • 4) After sampling, pressure was applied to the puncture until bleeding ceased. The animals were returned to their cages and given free access to food and water. • 5) Blood samples were stored on ice and then centrifuged at 13,000 rpm for 15 min to separate the plasma. • 6) 150 μL of the plasma was treated with 300 μL of ACN:MeOH (1:1) solution containing the internal standard. The samples were then centrifuged for a further 15 min at 13,000 rpm. • 7) 200 μL of the supernatant was collected and placed in LC-MS vials for analysis. All samples were stored at −80° C. Results

Data set [4] relates to neuropathic rats. As to the kind of experiment: Comparison of LT-01-25 and LT-01-89: ipsilateral paw withdrawal thresholds to mechanical pressure in neuropathic rats. Conditions: 30 mg/kg p.o., male SD rats. The format is in vivo, rat. As to the method: Male, SD rats. n=6/group. Vehicle: 10% DMSO/10% Solutol HS15/80% saline.
• 1) In rats a peripheral neuropathy was induced by partial ligation of the sciatic nerve in one hind limb. • 2) Two weeks (12-15 days) after induction of peripheral neuropathy stable mechanical (tactile) allodynia was induced in the hind paw of the affected limb. • 3) Five treatment groups of male SD rats (n=8) were used: vehicle control (drug formulation), 3 drug doses, and a positive control, lamotrigine (30 mg/kg). Animals were randomized between groups and the experiment was carried out using blinded conditions. The study was split with n=4/group in each experiment. • 4) Baseline behavioural measurements were obtained prior to surgery and at intervals post-surgery. Predose behavioural measurements were obtained by measuring paw withdrawal thresholds 12-15 days following nerve ligation. • 5) Compound efficacy was determined by measuring paw withdrawal thresholds at specified intervals following vehicle/compound treatment. Methods Animals
Animals were maintained in a controlled lighting environment and given food and water ad libitum. Male Sprague Dawley rats (120-140 g at time of surgery) were used.
Rats were fasted overnight with free access to water and fed 4 hours post-dose.
Tests compounds as well as Lamotrigine (30 mg/kg, volume: 10 ml/kg)) were prepared in the designated formulation (10% DMSO, Solutol HS 15/80% and 0.9% saline for p.o. administration) and administered via the chosen route.
Rats were anaesthetised (isoflurane/O2 inhalation), the left sciatic nerve was exposed at mid-thigh level through a small incision and ⅓ to ½ of the nerve thickness tightly ligated within a 7.0 silk suture. The wound was closed with skin clips. Animals were allowed to recover and compounds administered 12-15 days following surgery.
Compound/vehicle were administered at specified doses. Following treatment, further readings were taken; 1, 3, 6 and 24 hour after p.o. administration.

In data set [5] the test system is neuropathic rats. As to the kind of experiment: Comparison of LT-01-25 and LT-01-89: ipsilateral withdrawal latencies to cold (10° C.) stimulus in neuropathic rats. It is filed as in vivo, rat. Particulars: 30 mg/kg p.o., male SD rats.
Data set [6] is described as follows: Cerebrospinal fluid (CSF) levels after oral dosing. Particulars: p.o. dose 3 mg/kg, after 2 hr, fasted male SD rat. The format is in vivo.
A further data set can be described thus: Rat microsomal stability. The format is in vitro ADME. Conditions: Rat microsomes, 1 μM. The source says: Rat and human microsomal stability data was obtained using well established protocols known to those skilled in the art.
Data set [7] in a line: Human microsomal stability. The format is in vitro ADME. Particulars: human microsomes, 1 μM. As to the method:
The metabolic stability assay was performed by incubating each test compound (1 μM) with human liver microsomes in duplicate at 37° C. and 0.4 mg/mL protein concentration. The metabolic reaction was initiated by the addition of a NADPH-regenerating system (i.e. NADPH is the cofactor required for CYP450-mediated metabolism) and quenched at various time points over the 60 minute incubation period by the addition of acetonitrile. Control samples (containing no NADPH) were included (and quenched at 2, 30 and 60 minutes) to monitor for potential degradation in the absence of cofactor. Samples were analysed by UPLC-MS (Waters/Micromass Xevo G2 QTOF) under positive electrospray ionisation and MS spectral data acquired in a mass range of 80 to 1200 Daltons.
Test compound concentration versus time data were fitted to an exponential decay function to determine the first-order rate constant for substrate depletion. In cases where clear deviation from first-order kinetics was evident, only the initial linear portion of the profile was utilised to determine the degradation rate constant (k). Each substrate depletion rate constant was then used to calculate: [1] a degradation half-life, [2] an in vitro intrinsic clearance value (CLint, in vitro); [3] a predicted in vivo hepatic intrinsic clearance value (CLint); [4] a predicted in vivo blood clearance value (CLblood); and [5] a predicted in vivo hepatic extraction ratio (EH).
• 1) The substrate concentration employed is well below the apparent KM for substrate turnover; and, • 2) There is no significant product inhibition, nor is there any mechanism-based inactivation of enzyme. The use of hepatic microsomes in the prediction of the in vivo hepatic extraction ratio has two further inherent assumptions (Obach, 1999) which: • 1) NADPH-dependent oxidative metabolism predominates over other metabolic routes (i.e. direct conjugative metabolism, reduction, hydrolysis, etc.); and, • 2) Rates of metabolism and enzyme activities in vitro are truly reflective of those that exist in vivo. Data should be considered within these terms of reference.

α1 glycine receptor, sequence (P23415 29-457 limits assumed): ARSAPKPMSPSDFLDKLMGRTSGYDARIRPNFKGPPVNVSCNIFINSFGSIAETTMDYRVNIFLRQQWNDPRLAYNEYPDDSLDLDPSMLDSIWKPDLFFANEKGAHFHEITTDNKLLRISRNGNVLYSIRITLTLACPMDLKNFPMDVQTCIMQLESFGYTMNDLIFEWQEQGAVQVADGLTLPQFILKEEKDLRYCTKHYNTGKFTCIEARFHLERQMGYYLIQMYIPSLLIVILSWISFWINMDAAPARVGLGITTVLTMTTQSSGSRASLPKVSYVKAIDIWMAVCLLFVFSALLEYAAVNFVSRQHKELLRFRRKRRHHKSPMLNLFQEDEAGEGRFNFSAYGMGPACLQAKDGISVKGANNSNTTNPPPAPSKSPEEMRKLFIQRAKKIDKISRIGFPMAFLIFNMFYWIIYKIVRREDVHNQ

For `Nc1nnc(-c2cccc(Cl)c2Cl)c(N)n1` [lamotrigine, reference compound], the “Reversal, mechanical (positive control)” value in the data set with neuropathic rats [1] is given as 65%. Besides, the “Reversal, cold (positive control)” value with neuropathic rats [2] was 72%.
As a reminder, the EC50 is the concentration at which the effect is half-maximal. For the molecule `CC(C)c1cc(C(=O)N2CCN(C)CC2)cc(C(C)C)c1O` [Example 6, (4-Hydroxy-3-5-diisopropylphenyl)(4-methylpiperazin-1-yl)methanone], the response on α1 glycine receptor was half-maximal at 0.0012 nM (EC50).
Still for that read-out and setting: under `CC(C)c1cc(C(=O)N2CC(F)C2)cc(C(C)C)c1O` [Example 3, (3-Fluoroazetidin-1-yl)(4-hydroxy-3,5-diisopropylphenyl) methanone] stands 0.43 nM.
The same measure, in the same setting: the figure for `CC(C)c1cc(C(=O)N2CCO[C@H](C)C2)cc(C(C)C)c1O` [Example 2, (R)-(4-(hydroxy)-3,5-diisopropylphenyl)(2-methylmorpholino)methanone] is 0.06 nM.
One may read the Cmax as the maximum level reached in the sampled fluid or tissue. Broadly, the Tmax is the time from dosing to the highest level. Consider `CC(C)(C)c1cc(C(=O)N2CCOCC2)cc(C(C)(C)C)c1O` [LT-01-89, (4-(hydroxy)-3,5-di-tertbutyl)(morpholino)methanone, reference compound], for which, in data set [3], the “AUC∞ (area)” value was 5931.7 ng·h/mL, the “CL (area)/kg” value came to 17.947 mL/min/kg, the maximum concentration (Cmax) came out at 471.2 ng/mL and the “Half Life” value was 20.4 h. In data set [3], the time of peak concentration (Tmax) was determined as 1.2 h and the “Vd (area)/kg” value was 32.7299 L/kg. The “Mechanical pressure Percentage reversal of predose hyperalgesia” value (from here on “Mechanical pressure Percentage reversal”) with neuropathic rats [4] (1 hr) came out at 1 hr - - - 70%. For the same molecule, the “Mechanical pressure Percentage reversal” value in the data set with neuropathic rats [4] (3 hr) is recorded as 3 hr - - - 50%. Further, in the data set with neuropathic rats [4] (6 hr), the “Mechanical pressure Percentage reversal” value is listed as 6 hr - - - 20%. Also, the “Cold (10° C.) Stimulus Percentage reversal of predose Hyperalgesia” value in the data set on neuropathic rats [5] (1 hr) amounted to 1 hr - - - 70%. Moreover, the “Cold (10° C.) Stimulus Percentage reversal of predose Hyperalgesia” value with neuropathic rats [5] (3 hr) was 3 hr - - - 65%. For the same molecule, the “Cold (10° C.) Stimulus Percentage reversal of predose Hyperalgesia” value in the data set with neuropathic rats [5] (6 hr) is given as 6 hr - - - 10%. In data set [6], the CSF levels amounted to 27 ng/mL and the “CSF levels as multiple of EC50” value is “(180 × EC50)”. Besides, in the data set “Rat microsomal stability”, the Cl came to 20.38 mL/min/kg and the t1/2 turned out to be 2.02 h. In “Rat microsomal stability” (second set marked *), the “Cl (values marked *)” value is 5.26 mL/min/kg (Cl)* and the “t1/2 (values marked *)” value is recorded as 165 min (t1/2)*. For the same molecule, in data set [7], the “Cl (values marked *)” value was 6.2 mL/min/kg (Cl) * and the “t1/2 (values marked *)” value is recorded as 138.6 min (t1/2) *.
